Assay results as given in publication PMC11750672, “The in vivo metabolic pathway of Deg-AZM and in vitro investigations into the contribution of drug metabolizing enzymes and drug transporters in the drug interactions of Deg-AZM, a clinical-stage new transgelin agonist” (Frontiers in Pharmacology, 2025).

Legend:
[1] = Exposure profiles of Deg-AZM and metabolites in rat plasma, urine, feces and bile (UPLC-QTOF-MS); type: in vivo, rats; conditions: / = not detected; for Proportion in total related substances, Feces: rat feces 0-24 h; for Proportion in total related substances, Plasma: rat plasma 0.167-8 h after oral Deg-AZM, by AUC0-t of chromatographic peak area; for Proportion in total related substances, Urine: rat urine 0-24 h
Method: (§1) The plasma samples at 0.167 h, 0.5 h, 3 h and 8 h after administration were obtained from the study of tissue distribution in rats ([Gu et al., 2024]). Urine, feces and bile samples at 0–24 h after administration were obtained from the excretion study of a single gavage administration of 25 mg/kg Deg-AZM in rats ([Gu et al., 2024]).
Plasma samples were precipitated with methanol at a ratio of 1:3. Urine samples were diluted with 50% methanol at a ratio of 1:80. The feces was thoroughly ground and sonicated with a 50% methanol at a ratio of 1 g/10 mL to obtain the homogenate, then the homogenate were precipitated with methanol at a ratio of 1:1. Bile samples were precipitated with 50% methanol at a ratio of 1:1. The above obtained samples were vortexed for 1 min and centrifugated at 4°C, 12,000 rpm for 10 min. Finally, the upper layer was analyzed using the UPLC-QTOF-MS system.
The metabolites of Deg-AZM in the plasma, urine, feces and bile samples were identified by UPLC-QTOF-MS system. Liquid chromatography was performed on an ACQUITY UPLC^TM I-Class UPLC unit with a Waters ACQUITY UPLC HSS T3 (100 × 2.1 mm, 1.8 µm). A gradient program was employed with the mobile phase combining solvent A (0.02% formic acid in 5% acetonitrile) and solvent B (acetonitrile) as follows: 100% A (0–0.5 min), 100%–85% A (0.5–7 min), 85%–5% A (7–9 min), 5% A (9–12 min), 5%–100% A (12–15 min). The flow rate was 0.40 mL/min. The column temperature was maintained at 40°C.
A Waters Q-TOF Xevo G2-XS Spectrometer equipped with ESI source under positive ion mode was utilized to conduct mass spectrometry detection, for which the MS^E mode was set at the mass range of 100–1,000 Da. The cone voltage was 40 V. The desolvation temperature was set at 500°C and source temperature was 100°C. The desolvation gas flow rate was 800 L/h and the cone gas flow rate was 50 L/h. In MS^E centroid mode, the MS data were acquired with the low energy function in the trap collision energy (6 eV), and the tandem mass data were acquired with the high energy function in the ramp trap collision energy (35–45 eV).
The extraction ion chromatogram of plasma samples at 0.167 h, 0.5 h, 3 h and 8 h after administration of Deg-AZM in rats was shown in Figure 2. The extraction ion chromatogram of urine, feces and bile samples collected from 0 to 24 h after oral administration of Deg-AZM in rats was shown in Figure 3. The AUC0-t of Deg-AZM and its metabolites in plasma sample were calculated by trapezoidal rule based on the chromatographic peak area. 21 metabolites were found in rat plasma, with M0 (Deg-AZM) and metabolite M2 (demethylated) being the main exposure forms in rat plasma. M0 and M2 accounted for 61.6% and 23.0% of the total related substances in rat plasma, respectively. The relative proportions of Deg-AZM and its metabolites in urine, feces and bile samples were evaluated by the chromatographic peak area, as shown in Figure 4. The detailed proportion of Deg-AZM and its metabolites could be found in Supplementary Table S1. M0 and 28 metabolites were found in the urine of rats. […] M0 and 42 metabolites were found in the feces of rats. Metabolite M1-2 (monohydroxylation, 18.1%) and metabolite M2 (16.6%) were the main forms of fecal excretion of Deg-AZM in rats after oral administration. M0 and 38 metabolites were found in the bile samples of rats. Metabolite M1-2 (monohydroxylation, 19.2%) and metabolite M2 (16.5%) were the main forms of biliary excretion of Deg-AZM in rats after oral administration.

[2] = Excretion and material balance in rats (urine, feces 0-24 h); type: in vivo; conditions: through the kidneys and urine
Method: as §1
The types and proportions of metabolites in the excretion pathway were elucidated in this study. […] Based on the peak area in this study, the total amount of metabolites in urine and feces of rats was 0.589 times and 9.96 times that of the original form of Deg-AZM, respectively. The total amount of Deg-AZM excreted in its original form and various metabolites in urine and feces was 23.7% and 19.8% of the administered dose, respectively, with a material balance coefficient of 43.5%. Deg-AZM was mainly excreted in the form of its original form M0 (cumulative excretion fraction of 14.9%) and metabolite M2 (cumulative excretion fraction of 5.33%) through the kidneys and urine, and in the form of metabolite M1-2 (cumulative excretion fraction of 4.29%) and M2 (cumulative excretion fraction of 3.93%) through the intestines and feces. […] It is necessary to obtain standard samples of the main metabolites for accurate quantification or use isotope tracing techniques to further improve material balance research in the clinical stage.

CYP1A2 = test: CYP induction (mRNA, qPCR) in human hepatocytes; type: in vitro ADME; conditions: positive control 50 μM
Text: (§2) After culture and complete induction, total mRNA was extracted by TRNzol RNA Extraction Kit (purchased from Tiangen Biochemical Technology Co., Ltd., Beijing). The RNA was reverse transcribed into cDNA according to the instructions of the Transcriptor First Strand cDNA Synthesis Kit (purchased from Roche, Switzerland). Using reverse transcribed cDNA as a template, amplifying the internal reference genes of β-Actin of the sample and target genes of CYP1A2, CYP2B6, and CYP3A4 respectively to compare the expression differences.

CYP2B6 = test: CYP induction (mRNA, qPCR) in human hepatocytes; conditions: positive control 1 mM
Text: as §2

[3] = Bidirectional transport in Caco-2 cell monolayer; type: in vitro ADME, human; conditions: human, Caco-2, efflux positive control, (−) without quinidine
Method: (§3) The human colon adenocarcinoma Caco-2 cell line was provided by Institute of Basic Medicine, Chinese Academy of Medical Sciences (Beijing, China). Caco-2 cells were cultured in a high sugar DMEM medium containing 10% (v/v) fetal bovine serum at 37°C and 5% CO2 incubator. Caco-2 cells (2.5 ×10^5/mL) was inoculated into Transwell polycarbonate membrane 12 well plate. The culture medium was changed every 2 days for the first 14 days, and then every day. After 21 consecutive days, fully differentiated cell monolayers were obtained for drug transport assays.
(§4) Transepithelial electrical resistance (TEER) was used to indicate monolayer integrity. The electrode of the Millcell ERS-2 voltammeter was placed in HBSS solution for 20 min to pre-balance. At the same time, the culture medium was removed from the Transwell culture plate, 0.5 mL of pre-heated HBSS solution was added into the Apical (AP) of transwell, 1.5 mL of pre-heated HBSS solution was added into the Basolateral (BL) of transwell. After that, the transwell was balanced at 37°C for 20 min and then replaced the HBSS solution with the pre-heated HBSS solution, the TEER value was measured finally. Caco-2 cell monolayers with TEER >350 Ω cm^2 which means that the cells have formed a tight monolayer, were used for the experiment. The TEER value was calculated according to the following formula: TEER=TEERT ‐ TEERc×A where TEERT represented the TEER value (Ω) of the measured Transwell chamber with Caco-2 cells, TEERC was the TEER value (Ω) of the transwell chamber in the control group, and A was the membrane area of the transwell cavity (1.12 cm^2 in this experiment).
(§5) In order to evaluate the usability of the Transwell model research, [^3H] Propranolol (0.5 μCi/mL) and [^14C] PEG4000 (1 μCi/mL) served as high-permeability and impermeability controls to verify the uptake direction on Caco-2 cell monolayer, respectively. Rhodamine 123 was used as a positive control for efflux mechanism in bidirectional transport assay on Caco-2 cell monolayer.
(§6) The transmembrane permeability of Deg-AZM (2, 10 or 50 µM) and the potential to inhibit P-gp by Deg-AZM (2, 10 or 50 µM) were evaluated using Caco-2 cell monolayer both apical-to-basolateral (A-B) and basolateral-to-apical (B-A) directions at 37°C for 1 h, the experiments were conducted using quinidine (50 μM) as the inhibitor for P-gp. At the end of incubation, receiver and donor samples were both diluted by assay buffer and analyzed by LC-MS/MS.

P-gp = tested on: T1, P-gp; test: Bidirectional transport in Caco-2 cell monolayer with P-gp inhibitor quinidine; type: in vitro ADME, human; conditions: human, Caco-2, with quinidine 50 μM; efflux positive control, (+) quinidine; n = 3
T1 construct: evaluated using Caco-2 cell monolayer both apical-to-basolateral (A-B) and basolateral-to-apical (B-A) directions; endogenous in cells; host or cells: Caco-2
Method: as §3, §4, §5, §6

Caco-2 cell monolayer = test: Bidirectional transport in Caco-2 cell monolayer; type: in vitro ADME, human; conditions: 0.5 μCi/mL, high-permeability control; n = 3
Method: as §3, §4, §5, §6

[4] = single gavage 25 mg/kg Deg-AZM, by peak area
[5] = single gavage 25 mg/kg Deg-AZM, by peak area, 25 mg/kg

## CCC1OC(=O)C(C)C(O)C(C)C(O)C(C)(O)CC(C)CNC(C)C(O)C1(C)O (centres unmarked) [M2]
[1]; rat bile 0-24 h, single gavage 25 mg/kg Deg-AZM, by peak area
  Proportion in total related substances, Bile: 16.5%
[1]; [4]
  Proportion in total related substances, Feces: 16.6%
  Proportion in total related substances, Urine: 22.5%
[1]
  Proportion in total related substances, Plasma: 23.0%
[2]
  Cumulative excretion fraction, urine: 5.33%

## CCC(O)C(C)(O)C(O)C(C)N(C)CC(C)CC(C)(O)C(O)C(C)C(O)C(C)C(=O)O (centres unmarked) [M11]
[1]; [5]
  Proportion in total related substances, Feces: 1.24%
  Proportion in total related substances, Urine: 0.224%
[1]
  Proportion in total related substances, Plasma: 2.04%

## COc1ccc2[nH]c([S+]([O-])Cc3ncc(C)c(OC)c3C)nc2c1 (centres unmarked) [Omeprazole, reference compound]
CYP1A2; hepatocyte batch HUB
  CYP1A2 mRNA induction, times of control group: 48.2
CYP1A2; hepatocyte batch LHuf 17905B
  CYP1A2 mRNA induction, times of control group: 56.0
CYP1A2; hepatocyte batch MWB
  CYP1A2 mRNA induction, times of control group: 64.6

## CCC1(c2ccccc2)C(=O)NC(=O)NC1=O [Phenobarbital, reference compound]
CYP2B6; hepatocyte batch HUB
  CYP2B6 mRNA induction, times of control group: 13.5
CYP2B6; hepatocyte batch LHuf 17905B
  CYP2B6 mRNA induction, times of control group: 10.3
CYP2B6; hepatocyte batch MWB
  CYP2B6 mRNA induction, times of control group: 14.7

## COC(=O)c1ccccc1-c1c2ccc(=N)cc-2oc2cc(N)ccc12 [Rhodamine 123, reference compound]
[3]; n = 3
  Papp A→B: 0.031 ± 0.0141 nm/s
  Papp B→A: 1.66 ± 0.287 nm/s
[3]; read-out: ER
  efflux ratio: 53.5
P-gp
  Papp A→B: 0.0478 ± 0.00709 nm/s
  Papp B→A: 0.417 ± 0.152 nm/s

## CC(C)NCC(O)COc1cccc2ccccc12 (centres unmarked) [[^3H] Propranolol, reference compound]
Caco-2 cell monolayer
  P app AP→BL: 9.64 ± 1.05 ×10^–6 cm/s
